{"source": "the supplement of paper PMC10307832", "experiment_in_all_cases": "relative viability (nuclei count vs DMSO), 5 days (fraction); higher = more cells survive", "key": {"201T": {"system": "201T", "in_short": "(§1)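 A single step with final 0.05% Triton X-100, 1% formaldehyde and 1 ug/ml Hoechst fixed the cells and stained nuclei 5 days after treatment. Lung cancer cell lines in 1536-well plates had been treated by pin tool the day after seeding with one drug alone or a fixed anchor-drug dose plus five library-drug doses (not always all listed) in √10 steps, and nuclei were counted on 4× images. Relative viability is the ratio of nuclei in treated wells to nuclei in vehicle wells, taken as the median of duplicate plates.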"}, "COR-L 105": {"system": "COR-L 105", "in_short": "as §1"}, "ChaGo-K-1": {"system": "ChaGo-K-1", "in_short": "as §1"}, "EPLC-272H": {"system": "EPLC-272H", "in_short": "as §1"}, "H3255": {"system": "H3255", "in_short": "as §1"}, "HCC-78": {"system": "HCC-78", "in_short": "as §1"}, "HCC-827": {"system": "HCC-827", "in_short": "as §1"}, "LC-2-ad": {"system": "LC-2-ad", "in_short": "as §1"}, "LCLC-97TM1": {"system": "LCLC-97TM1", "in_short": "as §1"}, "NCI-H1666": {"system": "NCI-H1666", "in_short": "as §1"}, "NCI-H1915": {"system": "NCI-H1915", "in_short": "as §1"}, "NCI-H2087": {"system": "NCI-H2087", "in_short": "as §1"}, "NCI-H2126": {"system": "NCI-H2126", "in_short": "as §1"}, "NCI-H2347": {"system": "NCI-H2347", "in_short": "as §1"}, "NCI-H23": {"system": "NCI-H23", "in_short": "as §1"}, "NCI-H2405": {"system": "NCI-H2405", "in_short": "as §1"}, "NCI-H322M": {"system": "NCI-H322M", "in_short": "as §1"}, "NCI-H520": {"system": "NCI-H520", "in_short": "as §1"}, "NCI-H647": {"system": "NCI-H647", "in_short": "as §1"}, "NCI-H650": {"system": "NCI-H650", "in_short": "as §1"}, "NCI-H661": {"system": "NCI-H661", "in_short": "as §1"}, "PC-14": {"system": "PC-14", "in_short": "as §1"}, "RERF-LC-KJ": {"system": "RERF-LC-KJ", "in_short": "as §1"}}, "data": [{"smiles": "CC(C)Oc1cc(Nc2nc(N[C@@H](C)c3ccc(F)cn3)ncc2Cl)n[nH]1", "note": "[AZ23] + C[C@@H](Oc1cc(-c2cnn(C3CCNCC3)c2)cnc1N)c1c(Cl)ccc(F)c1Cl [Crizotinib] (partner 1 µM)", "values": [{"measurement": "relative viability", "setting": "201T; first compound 0.01 µM", "result": 1.06}, {"measurement": "relative viability", "setting": "201T; first compound 0.03162 µM", "result": 1.05}, {"measurement": "relative viability", "setting": "201T; first compound 0.3162 µM", "result": 1.01}, {"measurement": "relative viability", "setting": "COR-L 105; first compound 0.01 µM", "result": 0.618}, {"measurement": "relative viability", "setting": "COR-L 105; first compound 0.03162 µM", "result": 0.825}, {"measurement": "relative viability", "setting": "COR-L 105; first compound 0.3162 µM", "result": 0.786}, {"measurement": "relative viability", "setting": "ChaGo-K-1; first compound 0.01 µM", "result": 1.37}, {"measurement": "relative viability", "setting": "ChaGo-K-1; first compound 0.03162 µM", "result": 1.08}, {"measurement": "relative viability", "setting": "ChaGo-K-1; first compound 0.3162 µM", "result": 1.24}, {"measurement": "relative viability", "setting": "EPLC-272H; first compound 0.01 µM", "result": 1.19}, {"measurement": "relative viability", "setting": "EPLC-272H; first compound 0.03162 µM", "result": 1.19}, {"measurement": "relative viability", "setting": "H3255; first compound 0.01 µM", "result": 0.981}, {"measurement": "relative viability", "setting": "H3255; first compound 0.03162 µM", "result": 1.18}, {"measurement": "relative viability", "setting": "H3255; first compound 0.3162 µM", "result": 1.01}, {"measurement": "relative viability", "setting": "HCC-78; first compound 0.01 µM", "result": 0.318}, {"measurement": "relative viability", "setting": "HCC-78; first compound 0.03162 µM", "result": 0.39}, {"measurement": "relative viability", "setting": "HCC-78; first compound 0.3162 µM", "result": 0.336}, {"measurement": "relative viability", "setting": "HCC-827; first compound 0.01 µM", "result": 0.993}, {"measurement": "relative viability", "setting": "HCC-827; first compound 0.03162 µM", "result": 1.03}, {"measurement": "relative viability", "setting": "HCC-827; first compound 0.3162 µM", "result": 0.881}, {"measurement": "relative viability", "setting": "LC-2-ad; first compound 0.01 µM", "result": 0.471}, {"measurement": "relative viability", "setting": "LC-2-ad; first compound 0.03162 µM", "result": 0.458}, {"measurement": "relative viability", "setting": "LC-2-ad; first compound 0.3162 µM", "result": 0.436}, {"measurement": "relative viability", "setting": "LCLC-97TM1; first compound 0.01 µM", "result": 0.424}, {"measurement": "relative viability", "setting": "LCLC-97TM1; first compound 0.03162 µM", "result": 0.527}, {"measurement": "relative viability", "setting": "LCLC-97TM1; first compound 0.3162 µM", "result": 0.305}, {"measurement": "relative viability", "setting": "NCI-H1666; first compound 0.01 µM", "result": 1.03}, {"measurement": "relative viability", "setting": "NCI-H1666; first compound 0.03162 µM", "result": 0.978}, {"measurement": "relative viability", "setting": "NCI-H1666; first compound 0.3162 µM", "result": 1.02}, {"measurement": "relative viability", "setting": "NCI-H1915; first compound 0.01 µM", "result": 1.28}, {"measurement": "relative viability", "setting": "NCI-H1915; first compound 0.03162 µM", "result": 0.936}, {"measurement": "relative viability", "setting": "NCI-H1915; first compound 0.3162 µM", "result": 0.979}, {"measurement": "relative viability", "setting": "NCI-H2087; first compound 0.01 µM", "result": 1.16}, {"measurement": "relative viability", "setting": "NCI-H2087; first compound 0.03162 µM", "result": 1.11}, {"measurement": "relative viability", "setting": "NCI-H2087; first compound 0.3162 µM", "result": 1.04}, {"measurement": "relative viability", "setting": "NCI-H2126; first compound 0.01 µM", "result": 1.24}, {"measurement": "relative viability", "setting": "NCI-H2126; first compound 0.03162 µM", "result": 1.11}, {"measurement": "relative viability", "setting": "NCI-H2126; first compound 0.3162 µM", "result": 1.05}, {"measurement": "relative viability", "setting": "NCI-H2347; first compound 0.01 µM", "result": 0.736}, {"measurement": "relative viability", "setting": "NCI-H2347; first compound 0.03162 µM", "result": 0.861}, {"measurement": "relative viability", "setting": "NCI-H2347; first compound 0.3162 µM", "result": 0.654}, {"measurement": "relative viability", "setting": "NCI-H23; first compound 0.03162 µM", "result": 0.617}, {"measurement": "relative viability", "setting": "NCI-H23; first compound 0.3162 µM", "result": 0.539}, {"measurement": "relative viability", "setting": "NCI-H2405; first compound 0.01 µM", "result": 0.825}, {"measurement": "relative viability", "setting": "NCI-H2405; first compound 0.03162 µM", "result": 0.904}, {"measurement": "relative viability", "setting": "NCI-H2405; first compound 0.3162 µM", "result": 0.854}, {"measurement": "relative viability", "setting": "NCI-H322M; first compound 0.01 µM", "result": 1.08}, {"measurement": "relative viability", "setting": "NCI-H322M; first compound 0.03162 µM", "result": 1.14}, {"measurement": "relative viability", "setting": "NCI-H322M; first compound 0.3162 µM", "result": 0.939}, {"measurement": "relative viability", "setting": "NCI-H520; first compound 0.01 µM", "result": 0.869}, {"measurement": "relative viability", "setting": "NCI-H520; first compound 0.03162 µM", "result": 0.864}, {"measurement": "relative viability", "setting": "NCI-H520; first compound 0.3162 µM", "result": 0.732}, {"measurement": "relative viability", "setting": "NCI-H647; first compound 0.01 µM", "result": 1.71}, {"measurement": "relative viability", "setting": "NCI-H647; first compound 0.03162 µM", "result": 1.37}, {"measurement": "relative viability", "setting": "NCI-H647; first compound 0.3162 µM", "result": 1.3}, {"measurement": "relative viability", "setting": "NCI-H650; first compound 0.01 µM", "result": 0.866}, {"measurement": "relative viability", "setting": "NCI-H650; first compound 0.03162 µM", "result": 0.813}, {"measurement": "relative viability", "setting": "NCI-H650; first compound 0.3162 µM", "result": 0.847}, {"measurement": "relative viability", "setting": "NCI-H661; first compound 0.01 µM", "result": 1.1}, {"measurement": "relative viability", "setting": "NCI-H661; first compound 0.03162 µM", "result": 1.19}, {"measurement": "relative viability", "setting": "NCI-H661; first compound 0.3162 µM", "result": 1.11}, {"measurement": "relative viability", "setting": "PC-14; first compound 0.01 µM", "result": 0.896}, {"measurement": "relative viability", "setting": "PC-14; first compound 0.03162 µM", "result": 1.21}, {"measurement": "relative viability", "setting": "PC-14; first compound 0.3162 µM", "result": 0.89}, {"measurement": "relative viability", "setting": "RERF-LC-KJ; first compound 0.01 µM", "result": 1}, {"measurement": "relative viability", "setting": "RERF-LC-KJ; first compound 0.03162 µM", "result": 1}, {"measurement": "relative viability", "setting": "RERF-LC-KJ; first compound 0.3162 µM", "result": 0.915}]}]}
